From publication doi:10.1101/2025.01.14.632949v1 (biorxiv, 2025)

Molecular target: Gal-3 (Homo sapiens, UniProt P17931)
Test: biolayer interferometry, steady-state analysis
Type: binding

Sequence of Gal-3 (P17931 2-250): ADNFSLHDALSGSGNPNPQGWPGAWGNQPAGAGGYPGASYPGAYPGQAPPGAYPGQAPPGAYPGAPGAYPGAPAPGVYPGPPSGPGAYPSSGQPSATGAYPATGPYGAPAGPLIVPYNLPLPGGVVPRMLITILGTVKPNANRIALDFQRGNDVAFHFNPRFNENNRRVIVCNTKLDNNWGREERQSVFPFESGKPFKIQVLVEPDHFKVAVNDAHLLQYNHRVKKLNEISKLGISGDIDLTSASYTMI

Compound	Kd
OC[C@H]1O[C@H](Oc2ccc(N=Nc3c(O)c(N=Nc4ccc(O[C@H]5O[C@H](CO)[C@H](O)[C@H](O)[C@H]5O)cc4)c(O)c(N=Nc4ccc(O[C@H]5O[C@H](CO)[C@H](O)[C@H](O)[C@H]5O)cc4)c3O)cc2)[C@H](O)[C@@H](O)[C@H]1O [αGalY]	3.31 µM
OC[C@H]1O[C@@H](Oc2ccc(N=Nc3c(O)c(N=Nc4ccc(O[C@@H]5O[C@H](CO)[C@H](O)[C@H](O)[C@H]5O)cc4)c(O)c(N=Nc4ccc(O[C@@H]5O[C@H](CO)[C@H](O)[C@H](O)[C@H]5O)cc4)c3O)cc2)[C@H](O)[C@@H](O)[C@H]1O [βGalY]	9.14 ± 3.42 µM
OC[C@H]1O[C@@H](O[C@H]2[C@H](O)[C@@H](O)[C@H](Oc3ccc(N=Nc4c(O)c(N=Nc5ccc(O[C@@H]6O[C@H](CO)[C@@H](O[C@@H]7O[C@H](CO)[C@H](O)[C@H](O)[C@H]7O)[C@H](O)[C@H]6O)cc5)c(O)c(N=Nc5ccc(O[C@@H]6O[C@H](CO)[C@@H](O[C@@H]7O[C@H](CO)[C@H](O)[C@H](O)[C@H]7O)[C@H](O)[C@H]6O)cc5)c4O)cc3)O[C@@H]2CO)[C@H](O)[C@@H](O)[C@H]1O [βLacY]	3.46 ± 1.75 µM
